Data published in patent publication US20130060013A1, “Compounds useful for treating neurodegenerative disorders” (SATORI PHARMACEUTICALS, INC., priority 2011, published 2013).

Legend:
Type in all cases: cell-based
Details in all cases: Homo sapiens, compound 5 hours at 37° C., 1% DMSO, percent vehicle fit to 4 parameter curve
Aβ-38 = Aβ-38 level in conditioned media of 2B7 cells (MSD 3-PLEX ELISA)
Description: (§1) Assays were conducted to determine the ability of a Compound of Formula I to modulate […], and Aβ-38.
(§2) Plates with capture antibodies were blocked for 1-2 hours at room temperature with 150 μL of the manufactures blocking reagent.
(§3) Cultured 2B7 cells in 96 well plate with 250 uL of media per well until confluent;
(§4) Prepared serial dilutions of compounds in DMSO at 100× the final desired concentration;
(§5) Washed wells with 2B7 cells 1× with 250 uL of media;
(§6) Diluted DMSO stocks 1:100 into media:
(§7) Added 250 μL of media containing compounds (1% DMSO) to wells with 2B7 cells for 5 hours at 37° C.
(§8) Diluted conditioned media: 1 part media with 1% DMSO and 1 part blocking buffer;
(§9) 150 μL of the 250 μL of conditioned media were used.
(§10) Standard Curve Sample Prep:
(§11) Prepared per manufacturer's protocol (see above)
(§12) Seven point standard curve samples were prepared that contained Aβ-42, Aβ-40, and Aβ-38. The highest concentration of Aβ-42 and Aβ-38 was 3,000 pg/mL and the highest concentration of Aβ-40 was 10,000 pg/mL. Subsequent serial dilutions were 1:3 and the final composition of each sample was 1 part blocking buffer and 1 part cell medium containing 1% DMSO.
(§13) Overnight Sample Incubation:
(§14) Blocked plates are washed 5× with MSD wash buffer with a plate washer
(§15) 25 uL of detection antibody and blocker G reagent in MSD blocking solution is added
(§16) 25 uL of samples (1 part conditioned media containing 1% DMSO and 1 part MSD blocking buffer) are then added.
(§17) plates are incubated overnight at 4 degrees C. or 2 hours at room temp
(§18) Wash wells 5× with MSD wash buffer
(§19) Added 150 μL 2×MSD read buffer
(§20) A-Beta peptide levels for each peptide are calculated from the standard curve using the MSD software provided with the MSD 2400 Imager. Percent vehicle values for each compound dosage were then calculated and fit to a 4 parameter curve generating IC50 values.

Aβ-42 = Aβ-42 level in conditioned media of 2B7 cells (MSD 3-PLEX ELISA)
Description: as §1, §2, §3, §4, §5, §6, §7, §8, §9, §10, §11, §12, §13, §14, §15, §16, §17, §18, §19, §20

Aβ-40 = Aβ-40 level in conditioned media of 2B7 cells (MSD 3-PLEX ELISA)
Description: as §1
Human (6E10) Ab 3-PLEX elisa kits were purchased from Meso Scale Discovery Labs, 9328 Gaither Road, Gaithersburg, Md. 20877 (Catalog Number K15148E-3). Plates with capture antibodies were blocked for 1-2 hours at room temperature with 150 μL of the manufactures blocking reagent.
as §3, §4, §5, §6, §7, §8, §9, §10, §11, §12, §13, §14, §15, §16, §17, §18, §19, §20

Structure (SMILES) | IC50 (Aβ-38) | IC50 (Aβ-42) | IC50 (Aβ-40)
CO[C@@H](C1C[C@@H](C)[C@H]2C(O1)[C@H](O)[C@@]1(C)C3CC[C@H]4C(C)(C)[C@@H](O[C@H]5CN(C)CCO5)CC[C@@]45CC35CC[C@]21C)C(C)(C)O (stereo partly drawn) | 1000 to 10000 nM | 1000 to 10000 nM | 1000 to 10000 nM
CC(C)[C@@H](OC(=O)N1CCC1)[C@H]1C[C@@H](C)[C@H]2[C@H](O1)[C@H](O)[C@@]1(C)[C@@H]3CC[C@H]4C(C)(C)[C@@H](O[C@H]5CN(C(=O)CN6CCC6)CCO5)CCC45C[C@@]35CC[C@]21C (stereo partly drawn) | < 1000 nM | < 1000 nM | 1000 to 10000 nM
CCO[C@@H]([C@H]1C[C@@H](C)[C@H]2[C@H](O1)[C@H](O)[C@@]1(C)[C@@H]3CC[C@H]4C(C)(C)[C@@H](O[C@H]5CN(Cc6cncs6)CCO5)CCC45C[C@@]35CC[C@]21C)C(C)(C)O (stereo partly drawn) | 1000 to 10000 nM | < 1000 nM | 
CCO[C@@H]([C@H]1C[C@@H](C)[C@H]2[C@H](O1)[C@H](O)[C@@]1(C)[C@@H]3CC[C@H]4C(C)(C)[C@@H](O[C@H]5CN(Cc6nccs6)CCO5)CCC45C[C@@]35CC[C@]21C)C(C)(C)O (stereo partly drawn) | 1000 to 10000 nM | < 1000 nM | 
CCO[C@@H]([C@H]1C[C@@H](C)[C@H]2[C@H](O1)[C@H](O)[C@@]1(C)[C@@H]3CC[C@H]4C(C)(C)[C@@H](O[C@H]5CN(Cc6cnn(C)c6)CCO5)CCC45C[C@@]35CC[C@]21C)C(C)(C)O (stereo partly drawn) | 1000 to 10000 nM | < 1000 nM | 
CNC1CN(C(=O)O[C@H]2CCC34C[C@]35CC[C@]3(C)[C@@H]6[C@H](O[C@@H]([C@H](OC)C(C)(C)O)C[C@H]6C)[C@H](O)[C@@]3(C)[C@@H]5CC[C@H]4C2(C)C)C1 (stereo partly drawn) | 1000 to 10000 nM | < 1000 nM | 
COCCN1CCO[C@@H](O[C@H]2CCC34C[C@]35CC[C@]3(C)[C@@H]6[C@H](O[C@@H]([C@H](OC)C(C)(C)OC)C[C@H]6C)[C@H](O)[C@@]3(C)[C@@H]5CC[C@H]4C2(C)C)C1 (stereo partly drawn) | 1000 to 10000 nM | < 1000 nM | > 10000 nM
CCO[C@@H]([C@H]1C[C@@H](C)[C@H]2[C@H](O1)[C@H](O)[C@@]1(C)[C@@H]3CC[C@H]4C(C)(C)[C@@H](O[C@H]5CN(CC(=O)NCCOC)CCO5)CCC45C[C@@]35CC[C@]21C)C(C)(C)O (stereo partly drawn) | 1000 to 10000 nM | < 1000 nM | 1000 to 10000 nM
CO[C@@H]([C@H]1C[C@@H](C)[C@H]2[C@H](O1)[C@H](O)[C@@]1(C)[C@@H]3CC[C@H]4C(C)(C)[C@@H](O[C@H]5CN(CCN(C)C)CCO5)CCC45C[C@@]35CC[C@]21C)C(C)(C)OC (stereo partly drawn) | < 1000 nM | < 1000 nM | 1000 to 10000 nM
CCO[C@@H]([C@H]1C[C@@H](C)[C@H]2[C@H](O1)[C@H](O)[C@@]1(C)[C@@H]3CC[C@H]4C(C)(C)[C@@H](O[C@H]5CN(c6cncc(F)c6)CCO5)CCC45C[C@@]35CC[C@]21C)C(C)(C)C (stereo partly drawn) | 1000 to 10000 nM | 1000 to 10000 nM | > 10000 nM
CCO[C@@H](C1C[C@@H](C)[C@H]2C(O1)[C@H](O)[C@@]1(C)C3CC[C@H]4C(C)(C)[C@@H](O[C@H]5CN(c6cnccn6)CCO5)CCC45C[C@@]35CC[C@]21C)C(C)(C)O (stereo partly drawn) | < 1000 nM | < 1000 nM | > 10000 nM
CCO[C@@H]([C@H]1C[C@@H](C)[C@H]2[C@H](O1)[C@H](O)[C@@]1(C)[C@@H]3CC[C@H]4C(C)(C)[C@@H](O[C@H]5CN(C6CN(C(C)=O)C6)CCO5)CCC45C[C@@]35CC[C@]21C)C(C)(C)O (stereo partly drawn) | 1000 to 10000 nM | < 1000 nM | 1000 to 10000 nM
CCO[C@@H](C1C[C@@H](C)[C@H]2C(O1)[C@H](O)[C@@]1(C)C3CC[C@H]4C(C)(C)[C@@H](O[C@H]5CN(c6ccccn6)CCO5)CCC45C[C@@]35CC[C@]21C)C(C)(C)O (stereo partly drawn) | 1000 to 10000 nM | 1000 to 10000 nM | 1000 to 10000 nM
CCO[C@@H]([C@H]1C[C@@H](C)[C@H]2[C@H](O1)[C@H](O)[C@@]1(C)[C@@H]3CC[C@H]4C(C)(C)[C@@H](O[C@H]5CN(C6CN(C(C)C)C6)CCO5)CCC45C[C@@]35CC[C@]21C)C(C)(C)OC (stereo partly drawn) | < 1000 nM | < 1000 nM | 1000 to 10000 nM
CCO[C@@H]([C@H]1C[C@@H](C)[C@H]2[C@H](O1)[C@H](O)[C@@]1(C)[C@@H]3CC[C@H]4C(C)(C)[C@@H](O[C@H]5CN(CC6CN(C)C6)CCO5)CCC45C[C@@]35CC[C@]21C)C(C)(C)OC (stereo partly drawn) | < 1000 nM | < 1000 nM | 1000 to 10000 nM
CCO[C@@H](C1C[C@@H](C)[C@H]2C(O1)[C@H](O)[C@@]1(C)C3CC[C@H]4C(C)(C)[C@@H](O[C@H]5CN(CC(C)(C)N6CCOCC6)CCO5)CCC45C[C@@]35CC[C@]21C)C(C)(C)O (stereo partly drawn) | < 1000 nM | < 1000 nM | 1000 to 10000 nM
CCO[C@@H]([C@H]1C[C@@H](C)[C@H]2[C@H](O1)[C@H](O)[C@@]1(C)[C@@H]3CC[C@H]4C(C)(C)[C@@H](O[C@H]5CN(C(C)(C)CN6CCOCC6)CCO5)CCC45C[C@@]35CC[C@]21C)C(C)(C)O (stereo partly drawn) | < 1000 nM | < 1000 nM | 1000 to 10000 nM
CCO[C@@H]([C@H]1C[C@@H](C)[C@H]2[C@H](O1)[C@H](O)[C@@]1(C)[C@@H]3CC[C@H]4C(C)(C)[C@@H](O[C@H]5CN(C(C)(C)CN6CC(F)C6)CCO5)CCC45C[C@@]35CC[C@]21C)C(C)(C)O (stereo partly drawn) | < 1000 nM | < 1000 nM | 1000 to 10000 nM
CC(=O)O[C@H]([C@H]1C[C@@H](C)[C@H]2[C@@H](O1)[C@@H](O)[C@@]1(C)[C@@H]3CC[C@H]4C(C)(C)[C@@H](O)CCC45C[C@@]35CC[C@]21C)C(C)(C)O (stereo partly drawn) |  | 1000 to 10000 nM | 1000 to 10000 nM
CCO[C@@H]([C@H]1C[C@@H](C)[C@H]2[C@H](O1)[C@H](O)[C@@]1(C)[C@@H]3CC[C@H]4C(C)(C)[C@@H](OC(=O)C5CN(C6CCC6)C5)CCC45C[C@@]35CC[C@]21C)C(C)(C)O (stereo partly drawn) | < 1000 nM | < 1000 nM | 1000 to 10000 nM
CCO[C@@H]([C@H]1C[C@@H](C)[C@H]2[C@H](O1)[C@H](O)[C@@]1(C)[C@@H]3CC[C@H]4C(C)(C)[C@@H](OC(=O)[C@H]5COCCN5C)CCC45C[C@@]35CC[C@]21C)C(C)(C)O (stereo partly drawn) | < 1000 nM | < 1000 nM | > 10000 nM
CCO[C@@H]([C@H]1C[C@@H](C)[C@H]2[C@H](O1)[C@H](O)[C@@]1(C)[C@@H]3CC[C@H]4C(C)(C)[C@@H](OC(=O)[C@@H]5COCCN5C)CCC45C[C@@]35CC[C@]21C)C(C)(C)O (stereo partly drawn) | < 1000 nM | < 1000 nM | 1000 to 10000 nM
CCO[C@@H]([C@H]1C[C@@H](C)[C@H]2[C@H](O1)[C@H](O)[C@@]1(C)[C@@H]3CC[C@H]4C(C)(C)[C@@H](O[C@H]5CN(CCCO)CCO5)CCC45C[C@@]35CC[C@]21C)C(C)(C)O (stereo partly drawn) | 1000 to 10000 nM | < 1000 nM | 1000 to 10000 nM
CCO[C@@H]([C@H]1C[C@@H](C)[C@H]2[C@H](O1)[C@H](O)[C@@]1(C)[C@@H]3CC[C@H]4C(C)(C)[C@@H](OC(=O)[C@@H]5CCCN5)CCC45C[C@@]35CC[C@]21C)C(C)(C)O (stereo partly drawn) | < 1000 nM | < 1000 nM | 1000 to 10000 nM
CCO[C@@H]([C@H]1C[C@@H](C)[C@H]2[C@H](O1)[C@H](O)[C@@]1(C)[C@@H]3CC[C@H]4C(C)(C)[C@@H](OC(=O)[C@@H]5CCCN5C)CCC45C[C@@]35CC[C@]21C)C(C)(C)O (stereo partly drawn) | < 1000 nM | < 1000 nM | 1000 to 10000 nM
CCO[C@@H]([C@H]1C[C@@H](C)[C@H]2[C@H](O1)[C@H](O)[C@@]1(C)[C@@H]3CC[C@H]4C(C)(C)[C@@H](OC(=O)C5CCN5C(=O)OC(C)(C)C)CCC45C[C@@]35CC[C@]21C)C(C)(C)O (stereo partly drawn) | 1000 to 10000 nM | < 1000 nM | 1000 to 10000 nM
CCO[C@@H]([C@H]1C[C@@H](C)[C@H]2[C@H](O1)[C@H](O)[C@@]1(C)[C@@H]3CC[C@H]4C(C)(C)[C@@H](OC(=O)C5CCN5)CCC45C[C@@]35CC[C@]21C)C(C)(C)O (stereo partly drawn) | < 1000 nM | < 1000 nM | 1000 to 10000 nM
CCO[C@@H]([C@H]1C[C@@H](C)[C@H]2[C@H](O1)[C@H](O)[C@@]1(C)[C@@H]3CC[C@H]4C(C)(C)C(O[C@H]5CN(CCN(CCCOCCOCCOCCCNC(=O)CCCCC6SC[C@@H]7NC(=O)N[C@H]67)CCNC(=O)CCC6(C)N=N6)CCO5)CC[C@@]45CC35CC[C@]21C)C(C)(C)O (stereo partly drawn) |  | < 1000 nM | 1000 to 10000 nM
